Data as given in BindingDB's records for doi:10.1016/s0960-894x(01)00209-8 (Institut Für Biochemie Der Technischen …, 2001).

Molecular target: Beta-glucosidase (Agrobacterium sp.) (UniProt P12614)
Assay: Inhibitory activity against Agrobacterium sp. Beta-glucosidase employing fluorescence spectrometric method

Beta-glucosidase (Agrobacterium sp.), sequence (P12614 whole entry, looked up): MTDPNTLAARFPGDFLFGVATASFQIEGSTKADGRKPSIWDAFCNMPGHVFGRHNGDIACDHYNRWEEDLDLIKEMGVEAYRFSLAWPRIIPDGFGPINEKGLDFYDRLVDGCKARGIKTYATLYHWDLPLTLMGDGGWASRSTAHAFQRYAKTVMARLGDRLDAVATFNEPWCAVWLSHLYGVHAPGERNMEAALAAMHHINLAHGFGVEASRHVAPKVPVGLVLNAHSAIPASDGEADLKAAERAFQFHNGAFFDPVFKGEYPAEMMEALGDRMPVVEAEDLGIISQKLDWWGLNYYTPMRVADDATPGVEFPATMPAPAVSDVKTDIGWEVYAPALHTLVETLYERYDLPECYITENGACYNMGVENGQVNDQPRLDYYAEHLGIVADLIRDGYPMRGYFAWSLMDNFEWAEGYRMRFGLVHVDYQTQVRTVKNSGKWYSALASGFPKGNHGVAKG

`CN(C)c1cccc2c(S(=O)(=O)NC[C@H]3N[C@H](CO)[C@H](O)[C@@H]3O)cccc12` [5-Dimethylamino-naphthalene-1-sulfonic acid ((3S,4S,5R)-3,4-dihydroxy-5-hydroxymethyl-pyrrolidin-2-ylmethyl)-amide] was tested, and the Ki was 2.4 nM.
`CN(C)c1cccc2c(S(=O)(=O)NCCCCCC(=O)NC[C@H]3N[C@H](CO)[C@H](O)[C@@H]3O)cccc12` [6-(5-Dimethylamino-naphthalene-1-sulfonylamino)-hexanoic acid ((3S,4S,5R)-3,4-dihydroxy-5-hydroxymethyl-pyrrolidin-2-ylmethyl)-amide] showed a Ki of 2.1 nM.
